Experiments:
Assay in all cases: Test D controlled growth environment herbicide test, pre- and postemergence
Type in all cases: in vivo
[1] = tested on: foxtail, green (green foxtail, Setaria viridis)
From the text: (§1) Seeds of plant species selected from bluegrass (annual bluegrass, Poa annua), blackgrass (Alopecurus myosuroides), Canada thistle (Cirsium arvense), canarygrass (Phalaris minor), chickweed (common chickweed, Stellaria media), geranium, cutleaf (cutleaf geranium, Geranium dissectum), galium (catchweed bedstraw, Galium aparine), bromegrass, downy (downy bromegrass, Bromus tectorum), field poppy (Papaver rhoeas), field violet (Viola arvensis), foxtail, green (green foxtail, Setaria viridis), deadnettle (henbit deadnettle, Lamium amplexicaule), ryegrass, Italian (Italian ryegrass, Lolium multiflorum), kochia (Kochia scoparia), lambsquarters (Chenopodium album), oilseed rape (Brassica napus), pigweed (Amaranthus retroflexus), chamomile (scentless chamomile, Matricaria inodora), Russian thistle (Salsola kali), speedwell (bird's-eye speedwell, Veronica persica), barley, spring (spring barley, Hordeum vulgare), wheat, spring (spring wheat, Triticum aestivum), buckwheat, wild (wild buckwheat, Polygonum convolvulus), mustard, wild (wild mustard, Sinapis arvensis), oat, wild (wild oat, Avena fatua), radish, wild (wild radish, Raphanus raphanistrum), windgrass (Apera spica-venti), barley, winter (winter barley, Hordeum vulgare), and wheat, winter (winter wheat, Triticum aestivum) were planted into a silt loam soil and treated preemergence with test chemicals formulated in a non-phytotoxic solvent mixture which included a surfactant.
(§2) At the same time, these species were planted in pots containing Redi-Earth® planting medium (Scotts Company, 14111 Scottslawn Road, Marysville, Ohio 43041) comprising spaghnum peat moss, vermiculite, wetting agent and starter nutrients and treated with postemergence applications of the test chemicals formulated in the same manner. Plants ranged in height from 2 to 18 cm (1- to 4-leaf stage). Treated plants and controls were maintained in a controlled growth environment for 14 to 21 d after which time all species were compared to controls and visually evaluated. Plant response ratings, summarized in Table D, are based on a scale of 0 to 100 where 0 is no effect and 100 is complete control. A dash (-) response means no test result.

[2] = tested on: mustard, wild (wild mustard, Sinapis arvensis)
From the text: as §1, §2

[3] = tested on: deadnettle (henbit deadnettle, Lamium amplexicaule)
From the text: as §1, §2

[4] = tested on: oilseed rape (Brassica napus)
From the text: as §1, §2

[5] = tested on: buckwheat, wild (wild buckwheat, Polygonum convolvulus)
From the text: as §1, §2

[6] = tested on: speedwell (bird's-eye speedwell, Veronica persica)
From the text: as §1, §2

[7] = tested on: kochia (Kochia scoparia)
From the text: as §1, §2

[8] = tested on: windgrass (Apera spica-venti)
From the text: as §1, §2

[9] = tested on: pigweed (Amaranthus retroflexus)
From the text: as §1, §2

[10] = tested on: blackgrass (Alopecurus myosuroides)
From the text: as §1, §2

[11] = tested on: ryegrass, Italian (Italian ryegrass, Lolium multiflorum)
From the text: as §1, §2

[12] = tested on: galium (catchweed bedstraw, Galium aparine)
From the text: as §1, §2

[13] = tested on: chamomile (scentless chamomile, Matricaria inodora)
From the text: as §1, §2

[14] = tested on: bromegrass, downy (downy bromegrass, Bromus tectorum)
From the text: as §1, §2

[15] = Postemergence, 31 g ai/ha, scale 0 to 100 (0 no effect, 100 complete control)
[16] = Postemergence, 125 g ai/ha, visual rating on scale 0 (no effect) to 100 (complete control), 14 to 21 d
[17] = Postemergence, 250 g ai/ha, scale 0 to 100 (0 no effect, 100 complete control)
[18] = Preemergence, 62 g ai/ha, scale 0 to 100 (0 no effect, 100 complete control)
[19] = Preemergence, 125 g ai/ha, scale 0 to 100 (0 no effect, 100 complete control)
[20] = Preemergence, 250 g ai/ha, scale 0 to 100, 0 no effect, 100 complete control
[21] = postemergence, 62 g ai/ha, scale 0 to 100, 0 no effect, 100 complete control

Cc1nn(C)c(=O)c(-c2c(C)sc3ccc(Br)cc23)c1O [Compound 22]
Foxtail, Green plant response rating [1, 15]: 15 | Plant response rating, Foxtail, Green [1, 16]: 70 | Plant response rating, Foxtail, Green [1, 17]: 75 | Plant response rating (scale of 0 to 100), Foxtail, Green ([1]; Preemergence, 31 g ai/ha): 0 | Plant response rating, Foxtail, Green [1, 18]: 0 | Plant response rating, Foxtail, Green [1, 19]: 0 | Plant response rating, Foxtail, Green [1, 20]: 20 | Plant response rating, Foxtail, Green [1, 21]: 45 | Mustard, Wild plant response rating [2, 15]: 90 | Plant response rating, Mustard, Wild [2, 16]: 100 | Plant response rating, Mustard, Wild [2, 17]: 100 | Plant response rating (scale of 0 to 100), Mustard, Wild ([2]; Preemergence, 31 g ai/ha): 5 | Plant response rating, Mustard, Wild [2, 18]: 65 | Plant response rating, Mustard, Wild [2, 19]: 85 | Plant response rating, Mustard, Wild [2, 20]: 95 | Plant response rating, Mustard, Wild [2, 21]: 95 | Deadnettle plant response rating [3, 15]: 10 | Plant response rating, Deadnettle [3, 16]: 45 | Plant response rating, Deadnettle [3, 17]: 70 | Plant response rating (scale of 0 to 100), Deadnettle ([3]; Preemergence, 31 g ai/ha): 0 | Plant response rating, Deadnettle [3, 18]: 0 | Plant response rating, Deadnettle [3, 19]: 15 | Plant response rating, Deadnettle [3, 21]: 10 | Oilseed Rape plant response rating [4, 15]: 30 | Plant response rating, Oilseed Rape [4, 16]: 95 | Plant response rating, Oilseed Rape [4, 17]: 100 | Plant response rating (scale of 0 to 100), Oilseed Rape ([4]; Preemergence, 31 g ai/ha): 0 | Plant response rating, Oilseed Rape [4, 18]: 0 | Plant response rating, Oilseed Rape [4, 19]: 0 | Plant response rating, Oilseed Rape [4, 20]: 75 | Plant response rating, Oilseed Rape [4, 21]: 30 | Buckwheat, Wild plant response rating [5, 15]: 90 | Plant response rating, Buckwheat, Wild [5, 16]: 100 | Plant response rating, Buckwheat, Wild [5, 17]: 100 | Plant response rating (scale of 0 to 100), Buckwheat, Wild ([5]; Preemergence, 31 g ai/ha): 20 | Plant response rating, Buckwheat, Wild [5, 18]: 20 | Plant response rating, Buckwheat, Wild [5, 19]: 85 | Plant response rating, Buckwheat, Wild [5, 20]: 95 | Plant response rating, Buckwheat, Wild [5, 21]: 98 | Speedwell plant response rating [6, 15]: 60 | Plant response rating, Speedwell [6, 16]: 65 | Plant response rating, Speedwell [6, 17]: 100 | Plant response rating (scale of 0 to 100), Speedwell ([6]; Preemergence, 31 g ai/ha): 0 | Plant response rating, Speedwell [6, 18]: 0 | Plant response rating, Speedwell [6, 19]: 50 | Plant response rating, Speedwell [6, 20]: 100 | Plant response rating, Speedwell [6, 21]: 60 | Kochia plant response rating [7, 15]: 80 | Plant response rating, Kochia [7, 16]: 100 | Plant response rating, Kochia [7, 17]: 100 | Plant response rating (scale of 0 to 100), Kochia ([7]; Preemergence, 31 g ai/ha): 35 | Plant response rating, Kochia [7, 18]: 35 | Plant response rating, Kochia [7, 19]: 50 | Plant response rating, Kochia [7, 20]: 75 | Plant response rating, Kochia [7, 21]: 95 | Windgrass plant response rating [8, 15]: 15 | Plant response rating, Windgrass [8, 16]: 35 | Plant response rating, Windgrass [8, 17]: 55 | Plant response rating (scale of 0 to 100), Windgrass ([8]; Preemergence, 31 g ai/ha): 0 | Plant response rating, Windgrass [8, 18]: 20 | Plant response rating, Windgrass [8, 19]: 70 | Plant response rating, Windgrass [8, 20]: 80 | Plant response rating, Windgrass [8, 21]: 20 | Pigweed plant response rating [9, 15]: 85 | Plant response rating, Pigweed [9, 16]: 98 | Plant response rating, Pigweed [9, 17]: 100 | Plant response rating (scale of 0 to 100), Pigweed ([9]; Preemergence, 31 g ai/ha): 100 | Plant response rating, Pigweed [9, 18]: 98 | Plant response rating, Pigweed [9, 19]: 98 | Plant response rating, Pigweed [9, 20]: 100 | Plant response rating, Pigweed [9, 21]: 95 | Blackgrass plant response rating [10, 15]: 15 | Plant response rating, Blackgrass [10, 16]: 45 | Plant response rating, Blackgrass [10, 17]: 70 | Plant response rating (scale of 0 to 100), Blackgrass ([10]; Preemergence, 31 g ai/ha): 45 | Plant response rating, Blackgrass [10, 18]: 45 | Plant response rating, Blackgrass [10, 19]: 55 | Blackgrass plant response rating [10, 20]: 75 | Plant response rating, Blackgrass [10, 21]: 20 | Ryegrass, Italian plant response rating [11, 15]: 75 | Plant response rating, Ryegrass, Italian [11, 16]: 85 | Plant response rating, Ryegrass, Italian [11, 17]: 90 | Plant response rating (scale of 0 to 100), Ryegrass, Italian ([11]; Preemergence, 31 g ai/ha): 85 | Plant response rating, Ryegrass, Italian [11, 18]: 90 | Plant response rating, Ryegrass, Italian [11, 19]: 100 | Plant response rating, Ryegrass, Italian [11, 20]: 100 | Plant response rating, Ryegrass, Italian [11, 21]: 80 | Galium plant response rating [12, 15]: 90 | Plant response rating, Galium [12, 16]: 98 | Plant response rating, Galium [12, 17]: 98 | Plant response rating (scale of 0 to 100), Galium ([12]; Preemergence, 31 g ai/ha): 10 | Plant response rating, Galium [12, 18]: 65 | Plant response rating, Galium [12, 19]: 75 | Plant response rating, Galium [12, 20]: 85 | Plant response rating, Galium [12, 21]: 90 | Chamomile plant response rating [13, 15]: 80 | Plant response rating, Chamomile [13, 16]: 85 | Plant response rating, Chamomile [13, 17]: 100 | Plant response rating (scale of 0 to 100), Chamomile ([13]; Preemergence, 31 g ai/ha): 95 | Plant response rating, Chamomile [13, 18]: 100 | Plant response rating, Chamomile [13, 19]: 100 | Plant response rating, Chamomile [13, 20]: 100 | Plant response rating, Chamomile [13, 21]: 80 | Bromegrass, Downy plant response rating [14, 15]: 10 | Plant response rating, Bromegrass, Downy [14, 16]: 25 | Plant response rating, Bromegrass, Downy [14, 17]: 25 | Plant response rating (scale of 0 to 100), Bromegrass, Downy ([14]; Preemergence, 31 g ai/ha): 0 | Plant response rating, Bromegrass, Downy [14, 18]: 5 | Plant response rating, Bromegrass, Downy [14, 19]: 25 | Plant response rating, Bromegrass, Downy [14, 20]: 80 | Plant response rating, Bromegrass, Downy [14, 21]: 10

Cc1ccc2ccccc2c1-c1c(O)c(Br)nn(C)c1=O [Compound 23]
Plant response rating, Foxtail, Green [1, 16]: 80 | Plant response rating, Foxtail, Green [1, 17]: 90 | Plant response rating, Foxtail, Green [1, 21]: 75 | Plant response rating, Mustard, Wild [2, 16]: 100 | Plant response rating, Mustard, Wild [2, 17]: 100 | Plant response rating, Mustard, Wild [2, 21]: 95 | Plant response rating, Deadnettle [3, 16]: 75 | Plant response rating, Deadnettle [3, 17]: 85 | Plant response rating, Deadnettle [3, 21]: 65 | Plant response rating, Oilseed Rape [4, 16]: 65 | Plant response rating, Oilseed Rape [4, 17]: 85 | Plant response rating, Oilseed Rape [4, 21]: 60 | Plant response rating, Buckwheat, Wild [5, 16]: 100 | Plant response rating, Buckwheat, Wild [5, 17]: 100 | Plant response rating, Buckwheat, Wild [5, 21]: 100 | Plant response rating, Speedwell [6, 16]: 75 | Plant response rating, Speedwell [6, 17]: 95 | Plant response rating, Speedwell [6, 21]: 100 | Plant response rating, Kochia [7, 16]: 75 | Plant response rating, Kochia [7, 17]: 80 | Plant response rating, Kochia [7, 21]: 75 | Plant response rating, Windgrass [8, 16]: 75 | Plant response rating, Windgrass [8, 17]: 85 | Plant response rating, Windgrass [8, 21]: 70 | Plant response rating, Pigweed [9, 16]: 85 | Plant response rating, Pigweed [9, 17]: 100 | Plant response rating, Pigweed [9, 21]: 75 | Plant response rating, Blackgrass [10, 16]: 75 | Plant response rating, Blackgrass [10, 17]: 80 | Plant response rating, Blackgrass [10, 21]: 70 | Plant response rating, Ryegrass, Italian [11, 16]: 85 | Plant response rating, Ryegrass, Italian [11, 17]: 85 | Plant response rating, Ryegrass, Italian [11, 21]: 80 | Plant response rating, Galium [12, 16]: 100 | Plant response rating, Galium [12, 17]: 100 | Plant response rating, Galium [12, 21]: 100 | Plant response rating, Chamomile [13, 16]: 85 | Plant response rating, Chamomile [13, 17]: 100 | Plant response rating, Chamomile [13, 21]: 85 | Plant response rating, Bromegrass, Downy [14, 16]: 60 | Plant response rating, Bromegrass, Downy [14, 17]: 75 | Plant response rating, Bromegrass, Downy [14, 21]: 45

— patent publication US10597388B2, “Pyridazinone herbicides” (FMC CORPORATION, priority 2014, dated 2020)
